Series [1] deals with HCV 1b (Huh 7 Clone B cells containing HCV Replicon RNA). In words: HCV replicon assay. In kind it is cell-based. Particulars: HCV 1b replicon; for EC50 / EC90: Hepatitis C virus, Huh-7, letter value; for EC50: read-out: EC50 (μM or letter value); for EC90: read-out: EC90 (μM or letter value) or % inhib HCV. The procedure: Huh 7 Clone B cells containing HCV Replicon RNA were seeded in a 96-well plate at 5000 cells/well, and the compounds tested at 10 μM in triplicate immediately after seeding. Following five days incubation (37° C., 5% CO2), total cellular RNA was isolated by using versaGene RNA purification kit from Gentra. Replicon RNA and an internal control (TaqMan rRNA control reagents, Applied Biosystems) were amplified in a single step multiplex Real Time RT-PCR Assay. The antiviral effectiveness of the compounds was calculated by subtracting the threshold RT-PCR cycle of the test compound from the threshold RT-PCR cycle of the no-drug control (ΔCt HCV). A ΔCt of 3.3 equals a 1-log reduction (equal to 90% less starting material) in Replicon RNA levels. The cytotoxicity of the compounds was also calculated by using the ΔCt rRNA values. 2′-C-Me-C was used as the positive control. To determine EC90 and IC50 values^2, ΔCt: values were first converted into fraction of starting material^3 and then were used to calculate the % inhibition. […]

In series [2] the test system is HepaRG cells. Nature of the series: HepaRG 14-day cell viability assay (CellTiter-Glo). The settings on record: 14 days with 4 repeat doses. The class given is cell-based. The procedure: IC50 in HepaRG Cells for a 14-Day Assay (Non-Proliferating Liver Cells) Using Cell Titer GLO
HepaRG cells are plated one week prior to dosing to allow for the cells to regain its maximal metabolic activity and structure. HepaRG cells are dosed with increasing concentrations of the test compound (final DMSO concentration=0.5%); final test compound concentrations of 100, 30, 10, 3, 1, 0.3, 0.1, 0.03 μM for an eight point dose response curve (n=3 replicates per concentration) and the microtissues are incubated for 14 days with 4 repeat doses. Appropriate controls are simultaneously used as quality controls. Following the dosing period the medium is removed the cell viability is determined using CellTiter-Glo® reagent. The test sample is subsequently transferred to designated wells of a white assay plate and the luminescence determined using a luminometer.
IC50 values are also determined provided a clear dose-response relationship is observed.

A short description of series [3]: Cellular toxicity assay in CEM cells. Particulars: human; for CC50: read-out: Cytotoxicity, CC50; for cytotoxicity: value in parentheses after CC50, read-out: Cytotoxicity (% inhibition). The class given is cell-based. The procedure: (§1) The toxicity of the compounds was assessed in Vero, human PBM, CEM (human lymphoblastoid), MT-2, and HepG2 cells, as described previously (see Schinazi R. F., Sommadossi J.-P., Saalmann V., Cannon D. L., Xie M.-Y., Hart G. C., Smith G. A. & Hahn E. F. Antimicrob. Agents Chemother. 1990, 34, 1061-67).
(§2) Cycloheximide was included as positive cytotoxic control, and untreated cells exposed to solvent were included as negative controls. The cytotoxicity IC50 was obtained from the concentration-response curve using the median effective method described previously (see Chou T.-C. & Talalay P. Adv. Enzyme Regul. 1984, 22, 27-55; Belen′kii M. S. & Schinazi R. F. Antiviral Res. 1994, 25, 1-11).

The nature of series [4]: Cellular toxicity assay in Vero cells. In kind it is cell-based. The settings on record: African green monkey; for CC50: read-out: Cytotoxicity, CC50; for cytotoxicity: value in parentheses after CC50, read-out: Cytotoxicity (% inhibition). The procedure:
as §1, §2

Series [5] is described as follows: Cellular toxicity assay in PBM cells. Particulars: human; for CC50: read-out: Cytotoxicity, CC50; for cytotoxicity: value in parentheses after CC50, read-out: Cytotoxicity (% inhibition). In kind it is cell-based. The procedure:
as §1, §2

The subject of series [6] is mitochondrial DNA (COXII gene) in HepG2 cells. In words: Mitochondrial DNA level in HepG2 cells (real-time PCR). Particulars: for % inhibition MitDNA / pIC50: HepG2 cells, 14-day assay; for % inhibition MitDNA: 10 μM; for pIC50: read-out: IC50 MitDNA. On the procedure:
This assay was used in all studies described in this application that determine the effect of compounds on mitochondrial DNA content. In this assay, low-passage-number HepG2 cells were seeded at 5,000 cells/well in collagen-coated 96-well plates. Test compounds were added to the medium to obtain final concentrations of 0 μM, 0.1 μM, 10 μM and 100 μM. […] The mitochondrial cytochrome c oxidase subunit II (COXII) gene and the ß-actin or rRNA gene were amplified from 5 μl of the eluted nucleic acids using a multiplex Q-PCR protocol with suitable primers and probes for both target and reference amplifications. […] For exon 3 of the ß-actin gene (GenBank accession number E01094) the sense, probe, and antisense primers are 5′-[…]-3′ (SEQ ID NO. 4), 5′-6-[…]-3′ (SEQ ID NO. 5) and 5′-[…]-3′ (SEQ ID NO. 6), respectively. The primers and probes for the rRNA gene are commercially available from Applied Biosystems. […] The arithmetic formula for this approach is given by 2-ΔΔCT, where ΔΔCT is (CT for average target test sample−CT for target control)−(CT for average reference test−CT for reference control) (see Johnson M R, K Wang, J B Smith, M J Heslin, R B Diasio. Quantitation of dihydropyrimidine dehydrogenase expression by real-time reverse transcription polymerase chain reaction. Anal. Biochem. 2000; 278:175-184). A decrease in mitochondrial DNA content in cells grown in the presence of drug indicated mitochondrial toxicity.
(Real-time PCR tracks product formation cycle by cycle.)

The subject of series [7] is HepG2 cells. In words: Lactic acid production in HepG2 cells. The class given is cell-based, human. Particulars: 14-day assay, 10 μM. The procedure:
To measure the effects of the compounds on lactic acid production, HepG2 cells from a stock culture were diluted and plated in 12-well culture plates at 2.5×10^4 cells per well. […] […] The culture medium was then filtered, and the lactic acid content in the medium was determined using a colorimetric lactic acid assay (Sigma-Aldrich). Since lactic acid product can be considered a marker for impaired mitochondrial function, elevated levels of lactic acid production detected in cells grown in the presence of test compounds would indicate a drug-induced cytotoxic effect.

Series [8] has as its system nuclear DNA (ß-actin or rRNA gene) in HepG2 cells. In words: Nuclear DNA level in HepG2 cells (real-time PCR). In kind it is cell-based, human. The settings on record: HepG2 cells, 14-day assay; for % inhibition nDNA: 10 μM; for pIC50: read-out: IC50 nDNA. The procedure:
This assay was used in all studies described in this application that determine the effect of compounds on mitochondrial DNA content. In this assay, low-passage-number HepG2 cells were seeded at 5,000 cells/well in collagen-coated 96-well plates. Test compounds were added to the medium to obtain final concentrations of 0 μM, 0.1 μM, 10 μM and 100 μM. […] The mitochondrial cytochrome c oxidase subunit II (COXII) gene and the ß-actin or rRNA gene were amplified from 5 μl of the eluted nucleic acids using a multiplex Q-PCR protocol with suitable primers and probes for both target and reference amplifications. […] For exon 3 of the ß-actin gene (GenBank accession number E01094) the sense, probe, and antisense primers are 5′-[…]-3′ (SEQ ID NO. 4), 5′-6-[…]-3′ (SEQ ID NO. 5) and 5′-[…]-3′ (SEQ ID NO. 6), respectively. The primers and probes for the rRNA gene are commercially available from Applied Biosystems. […] The comparative CT method uses arithmetic formulas in which the amount of target (COXII gene) is normalized to the amount of an endogenous reference (the B-actin or rRNA gene) and is relative to a calibrator (a control with no drug at day 7). The arithmetic formula for this approach is given by 2-ΔΔCT, where ΔΔCT is (CT for average target test sample−CT for target control)−(CT for average reference test−CT for reference control) (see Johnson M R, K Wang, J B Smith, M J Heslin, R B Diasio. Quantitation of dihydropyrimidine dehydrogenase expression by real-time reverse transcription polymerase chain reaction. Anal. Biochem. 2000; 278:175-184). A decrease in mitochondrial DNA content in cells grown in the presence of drug indicated mitochondrial toxicity.

pIC50: −log10 of the molar value. Bounds are passed on as bounds.

In the case of `CC(C)OC(=O)[C@H](C)NP(=O)(OC[C@H]1O[C@@H](n2ccc(N)nc2=O)[C@](F)(Br)[C@@H]1O)Oc1ccccc1` (stereo partly drawn) [Compound 21, Isopropyl ((((2R,3R,4R,5R)-5-(4-amino-2-oxopyrimidin-1(2H)-yl)-4-bromo-4-fluoro-3-hydroxytetrahydrofuran-2-yl)methoxy)(phenoxy)phosphoryl)-L-alaninate], in series [1] (10 μM), the “EC50 (μM or letter value): value printed as % @ 10 μM” value is recorded as 67.9% @ 10 μM.
Regarding `CC(C)OC(=O)[C@H](C)N[P@@](=O)(OC[C@H]1O[C@@H](n2ccc(=O)[nH]c2=O)[C@@](F)(Br)C1O)Oc1ccccc1` (some centres unmarked) [Compound 22], the pIC50 (usually the negative decadic logarithm of the IC50, by convention in mol/L) in series [2] (Homo sapiens, 336 h) was 5.14. In addition, in series [1], the EC50 (in general, the concentration at which the effect is half-maximal) lay in the range of 0.1 to 1 µM and the EC90 (usually the concentration at which the effect reaches the 90% level) was 1 to 10 µM.
On to `CC(C)OC(=O)[C@H](C)NP(=O)(OC[C@H]1O[C@@H](n2ccc(=O)[nH]c2=O)C(F)(Br)C1O)Oc1ccccc1` (some centres unmarked), for which the CC50 in series [3], in series [4] and in series [5] was greater than 100 µM throughout. The cytotoxicity in series [3] is 14%; in series [4], 2.6%; in series [5] it was -3.8%.
Take `Nc1ccn([C@@H]2CS[C@H](CO)O2)c(=O)n1` [Compound 3TC, reference compound]: in series [6], the “% inhibition MitDNA” value came to 33.3% and the pIC50 was less than 5.00. For the same molecule, the “Lactic acid Production (% of control)” value in series [7] is 94.9 ± 12.2 % of control. In series [8], the “% inhibition nDNA” value worked out at 26.8% and the pIC50 is less than 5.00.
As to Tunicamycin [reference compound], the negative logarithm of the IC50 (pIC50) in series [2] is 7.96.
In series [2] (Homo sapiens, 336 h), `N#CC(C#N)=NNc1cccc(Cl)c1` [Carbonyl cyanide m-chlorophenyl hydrazone, reference compound] had a negative logarithm of the IC50 (pIC50) of 5.29.
For `CC(C)OC(=O)[C@H](C)N[P@](=O)(OC[C@H]1O[C@@H](n2ccc(=O)[nH]c2=O)[C@@](F)(Br)C1O)Oc1ccccc1` (some centres unmarked) [Compound 23], the pIC50 in series [2] (Homo sapiens, 336 h) is 4.46. Also, in series [1], the EC50 lay within 0.1 to 1 µM and the EC90 was 0.1 to 1 µM.
In the case of `O=c1ccn([C@@H]2O[C@H](CO)[C@@H](O)[C@]2(F)Br)c(=O)[nH]1`, the CC50 in series [3] (CEM lymphoblastoid cells), in series [4] and in series [5] was greater than 100 µM throughout. For the same molecule, the cytotoxicity in series [3] (CEM lymphoblastoid cells) was 21%; in series [4] it was 4.2%; in series [5] it was -24%.
`Nc1ccn([C@H]2CC[C@@H](CO)O2)c(=O)n1` [ddc, reference compound]: in series [6], the “Summary (mitochondrial toxicity)” value is “toxic”, the “% inhibition MitDNA” value is recorded as 99.9% and the pIC50 is greater than 5.00. In addition, in series [7], the “Lactic acid Production (% of control)” value is 267 ± 25.2 % of control. Further, in series [8], the “% inhibition nDNA” value came out at 88.7% and the pIC50 is greater than 5.00.

Source of the values: patent publication US10011629B2, “Nucleoside analogs for treatment of the flaviviridae family of viruses and cancer” (Cocrystal Pharma, Inc., priority 2015, dated 2018).
